Laboratory results: patent US7884116B2, “Octahydronaphthalene derivative and medicine” (Nippon Shinyaku Co., Ltd., priority 2003, dated 2011)
pIC50: −log10 of the molar value. Marks after values point to notes of the source that are not given here.

Key:
[1] = reported in non-patent reference 14; cited from earlier work
[2] = test system: ICAM-1 expressed on HUVEC; assay: Test about suppression of ICAM-1 expression (enzyme immuno assay, EIA), TNF-α-stimulated HUVEC; type: cell-based; conditions: Homo sapiens, TNF-α 0.3 ng/ml
Procedure: Using a culture broth containing serum for vascular endothelial cell (manufactured by Nissui Pharmaceutical Co., Ltd.) as a culture medium, HUVEC (umbilical vein endothelial cell manufactured by Morinaga Bioscience Institute) was cultured in a collagen-treated flask by the routine method.
For carrying out a test about the suppression of ICAM-1 expression with HUVEC, a collagen-treated 96-well plate was used, where HUVEC was added at 1 to 2×10^4 cells/well while the culture medium was added at 100 to 200 μl/well. The cell was cultured in 5% CO2 at 37° C. for 48 to 72 hours. Before adding a test solution, the culture medium (80 μl) was exchanged, to which 10 μl of a test solution preliminarily diluted was then added. The plate was allowed to stand alone in a CO2 incubator. 2 hours later, 10 μl of TNF-α (recombinant human TNF-α, manufactured by Genzyme) was added (to a final concentration of 0.3 ng/ml). The resulting plate was again allowed to stand alone in the CO2 incubator. 16 to 22 hours later, the cell was fixed with 1% p-formaldehyde solution. The cell was rinsed with a phosphate buffer containing Ca^2+ and Mg^2+, which was then treated with an anti-human ICAM-1 antibody (mouse IgG1, manufactured by Kyowa Medics) at ambient temperature for 30 minutes. After the cell was rinsed again with the phosphate buffer, the cell was treated with a peroxide-labeled anti-mouse IgG (H+L) (manufactured by Organon Teknik Corp.) for another 30 minutes. After the cell was again rinsed with the phosphate buffer, the color developed was measured, using a peroxidase chromogenic kit (manufactured by Sumitomo Bakelite Co., Ltd.), to determine ICAM-1 expressed on HUVEC as an expression-inhibiting ratio (%) to a non-drug group to calculate the IC50 value.

Solubility in solvents = type: physicochemical; conditions: methanol, chloroform, acetone, water, hexane
[3] = test system: collagen-induced arthritis, DBA/1J mouse; assay: Test using collagen arthritis model in mouse; type: in vivo; conditions: 30 mg/kg, oral daily after secondary sensitization, two weeks after secondary sensitization, non-drug group 5.7
Procedure: Type II collagen derived from bovine joint was dissolved in 0.1 M acetate saline to 2 mg/ml, with which an equal volume of the complete Freund's adjuvant (manufactured by Iatron) was mixed, to prepare an emulsion. For primary sensitization, the emulsion was injected intracutaneously into the tail root of a 8-week-old male DBA/1J mouse. Twenty-one days thereafter, 0.1 ml of an emulsion prepared in the same manner was intracutaneously injected into the dorsal part of the mouse, for secondary sensitization, to trigger the onset of arthritis. Two weeks after the secondary sensitization, the symptoms of arthritis were visually observed (0: normal; 1: swelling and reddening of finger tips; 2: mild swelling and reddening of parts distal from joints of hands and foots; 3: severe swelling and reddening of parts distal from joints of hands and foots). The symptoms of arthritis were observed individually over the four limbs. The total was defined as the arthritis score of an individual. Further, a test drugs was suspended in 0.5% methyl cellulose and orally given daily after the secondary sensitization.

[4] = test system: footpad thickness, MeHSA-sensitized C57BL/6 mouse; assay: Methylated human serum albumin-induced delayed hypersensitivity test (MeHSA-DTH); type: in vivo; conditions: oral, twice, footpad thickness 24 hours after induction
Procedure: Methylated human serum albumin (MeHSA) was dissolved in physiological saline to 5 mg/ml, which was then mixed with an equal volume of the complete Freund's adjuvant (manufactured by Iatron), to prepare an emulsion. Next, 100 μl of the prepared emulsion was injected subcutaneously into a 8-week-old male C57BL/6 mouse, for antigen sensitization. Seven days thereafter, MeHSA was dissolved in physiological saline to 1 mg/ml, which was injected at 25 μl subcutaneously into the footpad of the right hind limb, to trigger a reaction. The thickness of the footpad was measured 24 hours after the induction of the reaction, to calculate the difference from the thickness thereof before the induction of the reaction, to make an assessment. Additionally, drugs were orally given twice, namely one hour before the induction of the reaction and 16 hours after the induction thereof.

[5] = test system: HT-1080 (human fibrosarcoma cell); assay: Test about the suppression of cell growth (MTT); type: cell-based; conditions: 72 h, HT-1080, 3 days
Procedure: (§1) Various cancer cells and normal cell as cultured in a culture broth to 70 to 90% confluency were used. After the culture broth was removed, 0.25% trypsin/1 mM-EDTA solution was added to scrape off the cells and count the cells. Then, a cell suspension of 5×10^4 cells/ml was prepared. The suspension was divided at 90 μl/well into a 96-well plate, and allowed to stand alone in a CO2 incubator. On the next day, (a 0 to 10 μM test drug (the compound of Example 5) was added at 10 μl/well, for gentle shaking for sufficiently mixing the test drug with the liquid culture. After culturing for 3 days, each 10-μl portion of aqueous 5 mg/ml MTT (3-(4,5-dimethylthiazol-2-yl)-2,5-diphenyltetrazolium bromide) solution was added. After culturing in the CO2 incubator for another 4 hours, 100 μl of a 2-propanol solution containing 0.04N hydrochloric acid was added to each well, for terminating the reaction. The generated MTT formazan was sufficiently dissolved with a multi-channel pipette, to measure the absorbance at 595 nm, using a control wavelength of 655 nm. The measured absorbance was analyzed by non-linear regression analysis using a model formula by the MTT method, to calculate the concentration at which the cell growth was inhibited by 50% (IC50). The cells used at this test and the culture broths therefor are as shown below. • 1) Cell: A549 (human lung cancer cell, Human Science Foundation) • Culture broth: DMEM (Dulbecco's modified Eagle medium)+10% FBS (fetal bovine serum) • 2) Cell: PC-3 (human prostate cancer cell, ATCC) • Culture broth: DMEM+10% FBS • 3) Cell: AsPC-1 (human pancreas cancer cell, Tokyo University) • Culture broth: DMEM+10% FBS • 4) Cell: HT-1080 (human fibrosarcoma cell, ATCC) • Culture broth: DMEM+10% FBS • 5) Cell: Hepatocyte (normal human liver cell, ACRBI) • Culture broth: CS-C (Cell Systems) • 6) Cell: NHDF (normal human fibroblast cell, Kurabo) • Culture broth: DMEM+10% FBS • 7) Cell: BAE (normal bovine aorta vascular endothelial cell, ACRBI) • Culture broth: CS-C (Cell systems)

[6] = test system: AsPC-1 (human pancreas cancer cell); assay: Test about the suppression of cell growth (MTT); type: cell-based; conditions: ASPC1, 72 h, AsPC-1, 3 days
Procedure: as §1

[7] = test system: NHDF (normal human fibroblast cell); assay: Test about the suppression of cell growth (MTT); type: cell-based; conditions: 72 h, 3 days
Procedure: as §1

[8] = test system: Hepatocyte (normal human liver cell); assay: Test about the suppression of cell growth (MTT); type: cell-based; conditions: 72 h, 3 days
Procedure: as §1

[9] = test system: PC-3 (human prostate cancer cell); assay: Test about the suppression of cell growth (MTT); type: cell-based; conditions: 72 h, PC-3, 3 days
Procedure: as §1

[10] = test system: A549 (human lung cancer cell); assay: Test about the suppression of cell growth (MTT); type: cell-based; conditions: 72 h, A549, 3 days
Procedure: as §1

[11] = test system: BAE (normal bovine aorta vascular endothelial cell); assay: Test about the suppression of cell growth (MTT); type: cell-based; conditions: Bos taurus, 72 h, 3 days
Procedure: as §1

Structure (SMILES): COC(=O)/C=C/C=C/[C@@H]1[C@H]2[C@H](C)[C@@H](O)[C@H](C)C[C@@H]2C=C[C@@H]1C [Coprophilin]
- Antibacterial activity [1]: has an antibacterial activity

Structure (SMILES): C/C(=C\C=C\[C@@H]1[C@H]2[C@H](C)[C@@H](O)[C@H](C)C[C@@H]2C=C[C@@H]1C)C(=O)O [Example 1, (2E,4E)-5-[(1S,2S,4aR,6R,7S,8S,8aS)-7-hydroxy-2,6,8-trimethyl-1,2,4a,5,6,7,8,8a-octahydronaphthalen-1-yl]-2-methylpenta-2,4-dienoic acid]
- pIC50 [2]: 4.23
- Solubility (Solubility in solvents): soluble in methanol, chloroform and acetone but insoluble in water and hexane

Structure (SMILES): COC(=O)/C(C)=C/C=C/[C@@H]1[C@H]2[C@H](C)[C@@H](O)[C@H](C)C[C@@H]2C=C[C@@H]1C [Example 2, Methyl (2E,4E)-5-[(1S,2S,4aR,6R,7S,8S,8aS)-7-hydroxy-2,6,8-trimethyl-1,2,4a,5,6,7,8,8a-octahydronaphthalen-1-yl]-2-methylpenta-2,4-dienoate]
- pIC50 [2]: 6.17
- melting point: 54 to 57 °C

Structure (SMILES): C/C(=C\C=C\[C@@H]1[C@H]2[C@H](C)[C@@H](O)[C@H](C)C[C@@H]2C=C[C@@H]1C)C(=O)NCc1cccnc1 [Example 5, N-(Pyridin-3-ylmethyl)-(2E,4E)-5-[(1S,2S,4aR,6R,7S,8S,8aS)-7-hydroxy-2,6,8-trimethyl-1,2,4a,5,6,7,8,8a-octahydronaphthalen-1-yl]-2-methylpenta-2,4-dienamide]
- pIC50 [2]: 6.77
- Arthritis score [3]: 2.1*
- Suppression ratio (%) ([4]; 10 mg/kg): 27.5* %
- Suppression ratio (%) ([4]; 30 mg/kg): 51.5** %
- pIC50 [5]: 7.15
- pIC50 [6]: 6.95
- pIC50 [7]: 6.22
- pIC50 [8]: 6.37
- pIC50 [9]: 7.17
- pIC50 [10]: 7.07
- pIC50 [11]: 5.03

Structure (SMILES): C/C(=C\C=C\[C@@H]1[C@H]2[C@H](C)[C@@H](O)[C@H](C)C[C@@H]2C=C[C@@H]1C)C(=O)NCc1ccncc1 [Example 6, N-(Pyridin-4-ylmethyl)-(2E,4E)-5-[(1S,2S,4aR,6R,7S,8S,8aS)-7-hydroxy-2,6,8-trimethyl-1,2,4a,5,6,7,8,8a-octahydronaphthalen-1-yl]-2-methylpenta-2,4-dienamide]
- pIC50 [2]: 6.23
- Suppression ratio (%) ([4]; 10 mg/kg): 27.8* %
- Suppression ratio (%) ([4]; 30 mg/kg): 35.7** %

Structure (SMILES): CCCCNC(=O)/C(C)=C/C=C/[C@@H]1[C@H]2[C@H](C)[C@@H](O)[C@H](C)C[C@@H]2C=C[C@@H]1C [Example 18, N-(n-Butyl)-(2E,4E)-5-[(1S,2S,4aR,6R,7S,8S,8aS)-7-hydroxy-2,6,8-trimethyl-1,2,4a,5,6,7,8,8a-octahydronaphthalen-1-yl]-2-methylpenta-2,4-dienamide]
- pIC50 [2]: 5.62

Structure (SMILES): C/C(=C\C=C\[C@@H]1[C@H]2[C@H](C)[C@@H](O)[C@H](C)C[C@@H]2C=C[C@@H]1C)C(=O)NC(C)(C)C [Example 19, N-(t-Butyl)-(2E,4E)-5-[(1S,2S,4aR,6R,7S,8S,8aS)-7-hydroxy-2,6,8-trimethyl-1,2,4a,5,6,7,8,8a-octahydronaphthalen-1-yl]-2-methylpenta-2,4-dienamide]
- pIC50 [2]: 4.82

Structure (SMILES): C/C(=C\C=C\[C@@H]1[C@H]2[C@H](C)[C@@H](O)[C@H](C)C[C@@H]2C=C[C@@H]1C)C(=O)N(C)C [Example 20, N,N-Dimethyl-(2E,4E)-5-[(1S,2S,4aR,6R,7S,8S,8aS)-7-hydroxy-2,6,8-trimethyl-1,2,4a,5,6,7,8,8a-octahydronaphthalen-1-yl]-2-methylpenta-2,4-dienamide]
- pIC50 [2]: 5.85

Structure (SMILES): C/C(=C\C=C\[C@@H]1[C@H]2[C@H](C)[C@@H](O)[C@H](C)C[C@@H]2C=C[C@@H]1C)C(=O)N(C)Cc1ccccc1 [Example 21, N-Benzyl-N-methyl-(2E,4E)-5-[(1S,2S,4aR,6R,7S,8S,8aS)-7-hydroxy-2,6,8-trimethyl-1,2,4a,5,6,7,8,8a-octahydronaphthalen-1-yl]-2-methylpenta-2,4-dienamide]
- pIC50 [2]: 5.31

Structure (SMILES): C/C(=C\C=C\[C@@H]1[C@H]2[C@H](C)[C@@H](O)[C@H](C)C[C@@H]2C=C[C@@H]1C)C(N)=O [Example 22, (2E,4E)-5-[(1S,2S,4aR,6R,7S,8S,8aS)-7-Hydroxy-2,6,8-trimethyl-1,2,4a,5,6,7,8,8a-octahydronaphthalen-1-yl]-2-methylpenta-2,4-dienamide]
- pIC50 [2]: 5.06
